Experiments:
Type in all cases: functional
Aphis craccivora [1] = assay: Insecticidal activity against Aphis craccivora (cowpea aphid) assessed as mortality at 500 mg/L
Nilaparvata lugens [2] = assay: Ratio of imidacloprid LC50 to compound LC50 for imidacloprid-resistant Nilaparvata lugens (brown planthopper)
Nilaparvata lugens [3] = assay: Insecticidal activity against imidacloprid-resistant Nilaparvata lugens (brown planthopper) assessed as drug concentration required to induce mortality per pest
Nilaparvata lugens [4] = assay: Insecticidal activity against imidacloprid-sensitive Nilaparvata lugens (brown planthopper) assessed as drug concentration required to induce mortality per pest
Aphis craccivora [5] = assay: Insecticidal activity against Aphis craccivora (cowpea aphid) assessed as mortality

Row | Structure (SMILES) | mortality at 500 µg/mL (Aphis craccivora [1]) | also measured
1 | O=[N+]([O-])C1=C2N(Cc3ccc(Cl)nc3)CCN2[C@H](c2ccco2)[C@@](C2=NCCN2Cc2ccc(Cl)nc2)([N+](=O)[O-])[C@H]1c1ccco1 | 87% | –
2 | O=[N+]([O-])C1=C2N(Cc3ccc(Cl)nc3)CCN2[C@H](c2ccco2)[C@@](C2=NCCN2Cc2ccc(Cl)nc2)([N+](=O)[O-])[C@@H]1c1ccco1 | – | RatioLC50 (Nilaparvata lugens [2]): 10
3 | O=[N+]([O-])C1=C2N(Cc3ccc(Cl)nc3)CCN2[C@@H]2CC[C@H]1O2 | – | LC50 (Nilaparvata lugens [3]): 0.4925 ng; LC50 (Nilaparvata lugens [4]): 0.0742 ng; RatioLC50 (Nilaparvata lugens [2]): 50
4 | Cl.O=[N+]([O-])/C(=C\c1ccco1)C1=NCCN1Cc1ccc(Cl)nc1 | – | LC50 (Nilaparvata lugens [3]): 0.7312 ng; RatioLC50 (Nilaparvata lugens [2]): 30
5 | CN1CC([N+](=O)[O-])=C2N(Cc3ccc(Cl)nc3)C[C@H]3CCC[C@H]3N2C1 | 30% | –
6 | O=[N+]([O-])C1=C2N(Cc3ccc(Cl)nc3)CCN2[C@H]2CCC[C@@H]1O2 | 87% | LC50 (Nilaparvata lugens [3]): 18.9795 ng; LC50 (Nilaparvata lugens [4]): 4.144 ng
7 | CN1CC([N+](=O)[O-])=C2N(CC3COCO3)CCN2C1 (centres undefined) | 0% | –
8 | CCN1CC([N+](=O)[O-])=C2N(CC3COCO3)CCN2C1 (centres undefined) | 0% | –
9 | CCCN1CC([N+](=O)[O-])=C2N(CC3COCO3)CCN2C1 (centres undefined) | 0% | –
10 | CC(C)N1CC([N+](=O)[O-])=C2N(CC3COCO3)CCN2C1 (centres undefined) | 0% | –
11 | CCCCN1CC([N+](=O)[O-])=C2N(CC3COCO3)CCN2C1 (centres undefined) | 0% | –
12 | O=[N+]([O-])C1=C2N(CC3COCO3)CCN2CN(CCO)C1 (centres undefined) | 0% | –
13 | O=[N+]([O-])C1=C2N(Cc3ccc(Cl)nc3)C[C@H]3CCC[C@H]3N2CN(CCO)C1 (relative stereo) | 30% | –
14 | CCCCN1CC([N+](=O)[O-])=C2N(Cc3ccc(Cl)nc3)C[C@H]3CCC[C@H]3N2C1 (relative stereo) | 30% | –
15 | CCCN1CC([N+](=O)[O-])=C2N(Cc3ccc(Cl)nc3)C[C@H]3CCC[C@H]3N2C1 (relative stereo) | 30% | –
16 | CC(C)N1CC([N+](=O)[O-])=C2N(Cc3ccc(Cl)nc3)C[C@H]3CCC[C@H]3N2C1 (relative stereo) | 30% | –
17 | CCN1CC([N+](=O)[O-])=C2N(Cc3ccc(Cl)nc3)C[C@H]3CCC[C@H]3N2C1 (relative stereo) | 30% | –
18 | O=[N+]([O-])/N=C1\NCCN1Cc1ccc(Cl)nc1 [IMIDACLOPRID] | – | LC50 (Aphis craccivora [5]): 31 µM; LC50 (Nilaparvata lugens [3]): 22.1614 ng

— ChEMBL document CHEMBL3046491, “cis-Configuration: a new tactic/rationale for neonicotinoid molecular design” (2011)
